Data from patent US20070160574A1, “Design of CXC chemokine analogs for the treatment of human diseases” (priority 2000, published 2007).
Non-standard residues stand in square brackets, D forms with d. No end group written: not given here. Aun = NCCCCCCCCCCC(=O)O

T1: CXCR3 receptor (CXCR-3/300-19 cells) (Homo sapiens, UniProt P49682)
T1 construct: expressed in transfected cells; host or cells: 300-19 mouse pre-B lymphocytes (CXCR-3/300-19)
T1 sequence (P49682 1-368): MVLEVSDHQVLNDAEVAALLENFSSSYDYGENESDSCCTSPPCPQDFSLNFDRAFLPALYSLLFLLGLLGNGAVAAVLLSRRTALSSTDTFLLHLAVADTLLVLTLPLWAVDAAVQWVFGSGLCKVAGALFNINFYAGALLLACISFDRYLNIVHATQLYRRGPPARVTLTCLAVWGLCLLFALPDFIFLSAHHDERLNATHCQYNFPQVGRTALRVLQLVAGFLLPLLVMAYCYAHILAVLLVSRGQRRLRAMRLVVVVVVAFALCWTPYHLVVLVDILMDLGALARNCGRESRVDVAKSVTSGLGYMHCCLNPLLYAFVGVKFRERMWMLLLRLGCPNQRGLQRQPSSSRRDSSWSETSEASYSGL

B1: rBRAK: recombinant BRAK (CXCL14 chemokine) (protein, UniProt O95715 35-111, looked up)
C-X-C motif chemokine 14: SKCKCSRKGPKIRYSDVKKLEMKPKYPHCEEKMVIITTKSVSRYRGQEHCLHPKLQSTKRFIKWYNAWNEKRRVYEE

Molecular target: T1, CXCR3 receptor (CXCR-3/300-19 cells)
Assay: [Ca2+]i mobilization by IP-10 analogs, FLIPR Calcium 3 kit, CXCR-3/300-19 cells
Assay type: cell-based
Details: 100 μM (FIG. 1); three independent experiments
Method: Binding and Calcium Mobilization: Suspensions of CXCR-3/300-19 cells were used to assess binding and intracellular calcium mobilization induced by IP-10 analogs. These are mouse pre-B lymphocytes transfected with the CXCR3 receptor, (Moser, et al). The cells were washed in RPMI media and resuspended in RPMI media supplemented with 10% FCS, then plated at 1.2×10^5 cells per well of 96-well black wall/clear bottom plates coated with poly-D-lysine (Becton Dickinson) and loaded with 100 uL fluorescent calcium indicator FLIPR Calcium 3 assay kit component A (Molecular Probes) for 1 hr at 37° C. The cells on the plates were then spun at 1000 rpm for 15 minutes at room temperature.
Each of the sequences successfully bound to the cellular receptors. The intracellular calcium mobilization in response to 25 uL (0-100000 nM final concentrations) of the appropriate and various concentrations of analogue was measured at 37° C. by monitoring fluorescence as a function of time in all the wells using the Flexstation Fluorometric Imaging Plate Reader (Molecular Devices). All analogues were run simultaneously with rhIP-10 (R&D Systems) as the standard. Table 7 provides the dosage effect of the binding of each of the IP-10 analogs on the calcium mobilization activity of the cells.

Row | Molecule | increase in intracellular calcium mobilization [%]
1 | acetylated-IP-10-(1-16)-[linker]-IP-10-(66-78) (Ac-VPLSRTVRCTCISISN[Aun]LKAVSKEMSKRSP; cysteine pairing not given here) [SEQ ID NO:1641, IP-10 analog, numbering of U.S. App; 11/590,210] | ~500

Same assay, conditions: dosage 1.2 μM; CXCR-3/300-19 cells

Row | Molecule | calcium mobilization activity of the cells [%]
2 | acetylated-IP-10-(1-16)-[linker]-IP-10-(66-78) (Ac-VPLSRTVRCTCISISN[Aun]LKAVSKEMSKRSP; cysteine pairing not given here) [SEQ ID NO:1641, IP-10 analog, numbering of U.S. App; 11/590,210] | 12.6

Same assay, conditions: dosage 3.7 μM; CXCR-3/300-19 cells

Row | Molecule | calcium mobilization activity of the cells [%]
3 | acetylated-IP-10-(1-16)-[linker]-IP-10-(66-78) (Ac-VPLSRTVRCTCISISN[Aun]LKAVSKEMSKRSP; cysteine pairing not given here) [SEQ ID NO:1641, IP-10 analog, numbering of U.S. App; 11/590,210] | 12.7

Same assay, conditions: dosage 11.1 μM; CXCR-3/300-19 cells

Row | Molecule | calcium mobilization activity of the cells [%]
4 | acetylated-IP-10-(1-16)-[linker]-IP-10-(66-78) (Ac-VPLSRTVRCTCISISN[Aun]LKAVSKEMSKRSP; cysteine pairing not given here) [SEQ ID NO:1641, IP-10 analog, numbering of U.S. App; 11/590,210] | 14.1

Same assay, conditions: dosage 33.3 μM; CXCR-3/300-19 cells

Row | Molecule | calcium mobilization activity of the cells [%]
5 | acetylated-IP-10-(1-16)-[linker]-IP-10-(66-78) (Ac-VPLSRTVRCTCISISN[Aun]LKAVSKEMSKRSP; cysteine pairing not given here) [SEQ ID NO:1641, IP-10 analog, numbering of U.S. App; 11/590,210] | 20

Same assay, conditions: dosage 100 μM; CXCR-3/300-19 cells

Row | Molecule | calcium mobilization activity of the cells [%]
6 | acetylated-IP-10-(1-16)-[linker]-IP-10-(66-78) (Ac-VPLSRTVRCTCISISN[Aun]LKAVSKEMSKRSP; cysteine pairing not given here) [SEQ ID NO:1641, IP-10 analog, numbering of U.S. App; 11/590,210] | 52.9

Tested on: endothelial cell chemotaxis
Assay: not given
Details: in vitro; cited from earlier work

Row | Molecule | concentration blocking endothelial cell chemotaxis (as low as) [nmol/L]
7 | B1 | 1

Tested on: SUP-T1 cells
Assay: not given
Assay type: cell-based, human
Details: not given
Method: The experiments include contacting an SDF-1 mimetic with a cell. For the experiments, SUP-T1 cells (ATCC) were plated on the day of the experiment using 1.2×10^5 cells per well in 96-well black-wall/clear-bottom plates coated with poly-D-lysine (BD Biosciences) and loaded using a fluorescent calcium indicator. The indicator used was from a FLIPR Calcium 3 assay kit, component A, (Molecular Probes) and was loaded in the cell for 1 hr at 37° C. The intracellular calcium mobilization in response to the appropriate analogue was measured at 37° C. by monitoring the fluorescence as a function of time simultaneously in all the wells using a Flexstation Fluorometric Imaging Plate Reader (Molecular Devices).

Row | Molecule | EC50 [nM]
8 | KPVSLSYRAPFRFFGGGKLKWIQEYLEKALN-NH2 (C-terminus assumed) [SEQ ID NO: 6] | 283
9 | KPVSLSYRAPFRFFGGGRLKWIQEYLEKALN-NH2 (C-terminus assumed) [SEQ ID NO: 21] | 361
10 | KPVSLSYRAPFRFFGGKGLKWIQEYLEKALN-NH2 [SEQ ID NO: 5] | 211
11 | KPVSLSYRAPFRFFGGKKLKWIQEYLEKALN-NH2 (C-terminus assumed) [SEQ ID NO: 9] | 225
12 | KPVSLSYRAPFRFFGGRGLKWIQEYLEKALN-NH2 (C-terminus assumed) [SEQ ID NO: 20] | 307
13 | KPVSLSYRAPFRFFGGRRLKWIQEYLEKALN-NH2 [SEQ ID NO: 24] | 173
14 | KPVSLSYRAPFRFFGKGGLKWIQEYLEKALN-NH2 (C-terminus assumed) [SEQ ID NO: 4] | 312
15 | KPVSLSYRAPFRFFGKGKLKWIQEYLEKALN-NH2 (C-terminus assumed) [SEQ ID NO: 12] | 307
16 | KPVSLSYRAPFRFFGKKGLKWIQEYLEKALN-NH2 (C-terminus assumed) [SEQ ID NO: 8] | 304
17 | KPVSLSYRAPFRFFGKKKLKWIQEYLEKALN-NH2 (C-terminus assumed) [SEQ ID NO: 14] | 92
18 | KPVSLSYRAPFRFFGRGGLKWIQEYLEKALN-NH2 (C-terminus assumed) [SEQ ID NO: 19] | 253
19 | KPVSLSYRAPFRFFGRGRLKWIQEYLEKALN-NH2 [SEQ ID NO: 27] | 4320
20 | KPVSLSYRAPFRFFGRRGLKWIQEYLEKALN-NH2 [SEQ ID NO: 23] | 202
21 | KPVSLSYRAPFRFFGRRRLKWIQEYLEKALN-NH2 [SEQ ID NO: 29] | 1870
22 | KPVSLSYRAPFRFFKGGKLKWIQEYLEKALN-NH2 (C-terminus assumed) [SEQ ID NO: 10] | 233
23 | KPVSLSYRAPFRFFKGKGLKWIQEYLEKALN-NH2 [SEQ ID NO: 11] | 228
24 | KPVSLSYRAPFRFFKGKKLKWIQEYLEKALN-NH2 (C-terminus assumed) [SEQ ID NO: 15] | 157
25 | KPVSLSYRAPFRFFKKGGLKWIQEYLEKALN-NH2 (C-terminus assumed) [SEQ ID NO: 7] | 281
26 | KPVSLSYRAPFRFFKKGKLKWIQEYLEKALN-NH2 (C-terminus assumed) [SEQ ID NO: 16] | 140
27 | KPVSLSYRAPFRFFKKKGLKWIQEYLEKALN-NH2 (C-terminus assumed) [SEQ ID NO: 13] | 137
28 | KPVSLSYRAPFRFFKKKKLKWIQEYLEKALN-NH2 (C-terminus assumed) [SEQ ID NO: 17] | 316
29 | KPVSLSYRAPFRFFRGGGLKWIQEYLEKALN-NH2 (C-terminus assumed) [SEQ ID NO: 18] | 219
30 | KPVSLSYRAPFRFFRGGRLKWIQEYLEKALN-NH2 [SEQ ID NO: 25] | 132
31 | KPVSLSYRAPFRFFRGRGLKWIQEYLEKALN-NH2 [SEQ ID NO: 26] | 248
32 | KPVSLSYRAPFRFFRGRRLKWIQEYLEKALN-NH2 [SEQ ID NO: 30] | 178
33 | KPVSLSYRAPFRFFRRGGLKWIQEYLEKALN-NH2 (C-terminus assumed) [SEQ ID NO: 22] | 171
34 | KPVSLSYRAPFRFFRRGRLKWIQEYLEKALN-NH2 [SEQ ID NO: 31] | 709
35 | KPVSLSYRAPFRFFRRRGLKWIQEYLEKALN-NH2 [SEQ ID NO: 28] | 597
36 | KPVSLSYRAPFRFFRRRRLKWIQEYLEKALN-NH2 [SEQ ID NO: 32] | 1120

Tested on: high affinity receptors on human immature monocyte-derived dendritic cells (iDCs)
Assay: not given
Details: cited from earlier work

Row | Molecule | Kd [nM]
37 | B1 | 2
